The first assay addresses T1, Human CaV2.2 channels (Homo sapiens, UniProt Q00975).
T1 construct: expressed in transfected cells
Briefly: Fluorescence assay for CaV2.2 channels using potassium depolarization to induce channel opening (FLIPR, Fluo 4). The format is cell-based. The following applies: 3 μM test compound; alternative assay buffer 30 mM KCl (inactivated channel state); HEK293 cells stably expressing human CaV2.2. The text has this: In the process, the Ca^2+ influx is quantified in the FLIPR assay with the aid of a Ca^2+-sensitive dye (type Fluo-4, Molecular Probes Europe BV, Leiden, the Netherlands) in a fluorescent imaging plate reader (FLIPR 3, Molecular Devices, Sunnyvale, USA), as described hereinafter.
2.1 Fluorescence Assay for CaV2.2 Channels Using Potassium Depolarization to Induce Channel Opening
Human CaV2.2 channels were stably expressed in HEK293 cells together with alpha2-delta and beta subunits of voltage gated calcium channels. In addition, an inwardly rectifying potassium channel (Kir2.3) was stably expressed in these cells to augment control of the cell membrane potential by the concentration of extracellular potassium ions. Raise of the extracellular potassium concentration leads to depolarization of the membrane potential and thus regulates the voltage dependent state of CaV2.2 channels. For preparation, cells were seeded in black poly-D-lysine coated 96-well plates (Becton Dickinson, Biocoat 4640) in 100 μL medium [500 mL DMEM/F-12 plus Glutamax (Invitrogen 31331-093) plus 5.5 mL MEM NEAA 100× (Invitrogen 11140-035) plus 50 mL FBS decomplemented (Invitrogen 10270-106) plus 200 μg/mL Geneticin (Invitrogen 10131-027) plus 50 μg/mL Hygromycin B (Invitrogen 10687-010) plus 2 μg/mL Blasticidin (anti-bl5b Invivo-Gen) plus 0.2 μg/mL Puromycin (A 11138-03)] at a cell density of 30.000 cells per well. Plates were incubated at 37° C. (5% CO2) for 20 to 23 h. On the day of experiment medium was discarded and cells were loaded with Fluo 4 by addition of 100 μL of basic assay buffer (10 mM HEPES, 1 mM KCl, 149 mM NaCl, 0.8 mM CaCl2, 1.7 mM MgCl2, 10 mM Glucose, 0.1% BSA. pH 7.4) containing 2 μM Fluo 4 (Molecular Probes; F-14201), 0.01% pluronic acid (Molecular Probes; P-6866) and 2.5 mM probenecid (Molecular Probes; P36400). Cells were incubated in the dark at 25° C. for 60 min. Then dye containing buffer was discarded and 100 μL basic (1 mM KCl) or alternative (30 mM KCl) assay buffer was added. The alternative assay buffer contained altered concentrations of KCl (30 mM) and NaCl (120 mM) and was used in order to promote the inactivated channel state. After that 25 μL of basic or alternative assay buffer with or without test compound were added and cells were incubated again in the dark at 25° C. for 15 min. Fluorescence intensity was measured on a FLIPR 3 instrument (Molecular Devices Corp., Sunnyvale, Calif.) with excitation at 480 nm and emission at 535 nm. After continuously reading fluorescence for 30 sec, 50 μL of basic assay buffer containing 210 mM KCl (NaCl omitted) were added for depolarization. Peak fluorescent signal intensity was determined and the amplitude of the peak signal, normalized to base line, was used to measure channel inhibition by test compounds.
T1 sequence (P54289 947-1103): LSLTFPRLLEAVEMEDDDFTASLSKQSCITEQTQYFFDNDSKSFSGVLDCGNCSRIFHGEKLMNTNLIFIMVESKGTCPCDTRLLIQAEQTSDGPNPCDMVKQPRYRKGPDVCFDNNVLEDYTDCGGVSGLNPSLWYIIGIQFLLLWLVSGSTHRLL
T1 sequence (P54289 25-946): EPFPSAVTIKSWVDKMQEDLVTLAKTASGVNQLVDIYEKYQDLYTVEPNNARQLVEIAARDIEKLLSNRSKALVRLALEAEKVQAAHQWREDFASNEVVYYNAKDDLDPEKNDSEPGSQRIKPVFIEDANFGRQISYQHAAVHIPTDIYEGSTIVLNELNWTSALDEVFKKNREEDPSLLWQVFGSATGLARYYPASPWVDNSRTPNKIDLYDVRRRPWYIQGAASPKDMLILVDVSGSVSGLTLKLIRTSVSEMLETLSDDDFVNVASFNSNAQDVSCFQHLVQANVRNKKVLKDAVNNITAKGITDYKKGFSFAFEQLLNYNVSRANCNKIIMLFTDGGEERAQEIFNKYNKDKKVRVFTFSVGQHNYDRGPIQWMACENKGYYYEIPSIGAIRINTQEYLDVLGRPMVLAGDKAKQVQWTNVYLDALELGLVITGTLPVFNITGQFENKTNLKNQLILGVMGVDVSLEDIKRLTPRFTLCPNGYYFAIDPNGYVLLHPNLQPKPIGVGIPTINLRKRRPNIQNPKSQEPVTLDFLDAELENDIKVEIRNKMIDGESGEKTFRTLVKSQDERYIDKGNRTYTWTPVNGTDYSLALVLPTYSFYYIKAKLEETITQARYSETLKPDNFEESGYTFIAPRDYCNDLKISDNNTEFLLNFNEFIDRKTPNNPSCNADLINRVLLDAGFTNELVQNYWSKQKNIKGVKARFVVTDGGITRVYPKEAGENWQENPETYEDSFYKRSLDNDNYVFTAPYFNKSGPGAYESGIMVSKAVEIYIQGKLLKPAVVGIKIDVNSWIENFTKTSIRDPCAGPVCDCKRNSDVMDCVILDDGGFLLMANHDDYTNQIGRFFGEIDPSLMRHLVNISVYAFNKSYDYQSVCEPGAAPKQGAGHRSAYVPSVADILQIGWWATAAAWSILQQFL
T1 sequence (P54284 whole entry, further chain): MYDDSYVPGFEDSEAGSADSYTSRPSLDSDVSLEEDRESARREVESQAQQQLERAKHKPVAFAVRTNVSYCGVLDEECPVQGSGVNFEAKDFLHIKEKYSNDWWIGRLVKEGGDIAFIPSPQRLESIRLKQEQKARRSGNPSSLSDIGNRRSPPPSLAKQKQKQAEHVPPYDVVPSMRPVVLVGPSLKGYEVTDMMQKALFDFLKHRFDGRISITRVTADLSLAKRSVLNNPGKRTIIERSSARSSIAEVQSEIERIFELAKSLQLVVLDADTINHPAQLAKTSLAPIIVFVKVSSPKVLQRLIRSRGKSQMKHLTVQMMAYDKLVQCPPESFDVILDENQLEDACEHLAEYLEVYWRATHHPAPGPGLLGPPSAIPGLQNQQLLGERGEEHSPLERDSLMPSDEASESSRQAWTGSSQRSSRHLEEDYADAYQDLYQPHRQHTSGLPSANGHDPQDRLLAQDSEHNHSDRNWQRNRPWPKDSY
T1 sequence (Q00975 whole entry): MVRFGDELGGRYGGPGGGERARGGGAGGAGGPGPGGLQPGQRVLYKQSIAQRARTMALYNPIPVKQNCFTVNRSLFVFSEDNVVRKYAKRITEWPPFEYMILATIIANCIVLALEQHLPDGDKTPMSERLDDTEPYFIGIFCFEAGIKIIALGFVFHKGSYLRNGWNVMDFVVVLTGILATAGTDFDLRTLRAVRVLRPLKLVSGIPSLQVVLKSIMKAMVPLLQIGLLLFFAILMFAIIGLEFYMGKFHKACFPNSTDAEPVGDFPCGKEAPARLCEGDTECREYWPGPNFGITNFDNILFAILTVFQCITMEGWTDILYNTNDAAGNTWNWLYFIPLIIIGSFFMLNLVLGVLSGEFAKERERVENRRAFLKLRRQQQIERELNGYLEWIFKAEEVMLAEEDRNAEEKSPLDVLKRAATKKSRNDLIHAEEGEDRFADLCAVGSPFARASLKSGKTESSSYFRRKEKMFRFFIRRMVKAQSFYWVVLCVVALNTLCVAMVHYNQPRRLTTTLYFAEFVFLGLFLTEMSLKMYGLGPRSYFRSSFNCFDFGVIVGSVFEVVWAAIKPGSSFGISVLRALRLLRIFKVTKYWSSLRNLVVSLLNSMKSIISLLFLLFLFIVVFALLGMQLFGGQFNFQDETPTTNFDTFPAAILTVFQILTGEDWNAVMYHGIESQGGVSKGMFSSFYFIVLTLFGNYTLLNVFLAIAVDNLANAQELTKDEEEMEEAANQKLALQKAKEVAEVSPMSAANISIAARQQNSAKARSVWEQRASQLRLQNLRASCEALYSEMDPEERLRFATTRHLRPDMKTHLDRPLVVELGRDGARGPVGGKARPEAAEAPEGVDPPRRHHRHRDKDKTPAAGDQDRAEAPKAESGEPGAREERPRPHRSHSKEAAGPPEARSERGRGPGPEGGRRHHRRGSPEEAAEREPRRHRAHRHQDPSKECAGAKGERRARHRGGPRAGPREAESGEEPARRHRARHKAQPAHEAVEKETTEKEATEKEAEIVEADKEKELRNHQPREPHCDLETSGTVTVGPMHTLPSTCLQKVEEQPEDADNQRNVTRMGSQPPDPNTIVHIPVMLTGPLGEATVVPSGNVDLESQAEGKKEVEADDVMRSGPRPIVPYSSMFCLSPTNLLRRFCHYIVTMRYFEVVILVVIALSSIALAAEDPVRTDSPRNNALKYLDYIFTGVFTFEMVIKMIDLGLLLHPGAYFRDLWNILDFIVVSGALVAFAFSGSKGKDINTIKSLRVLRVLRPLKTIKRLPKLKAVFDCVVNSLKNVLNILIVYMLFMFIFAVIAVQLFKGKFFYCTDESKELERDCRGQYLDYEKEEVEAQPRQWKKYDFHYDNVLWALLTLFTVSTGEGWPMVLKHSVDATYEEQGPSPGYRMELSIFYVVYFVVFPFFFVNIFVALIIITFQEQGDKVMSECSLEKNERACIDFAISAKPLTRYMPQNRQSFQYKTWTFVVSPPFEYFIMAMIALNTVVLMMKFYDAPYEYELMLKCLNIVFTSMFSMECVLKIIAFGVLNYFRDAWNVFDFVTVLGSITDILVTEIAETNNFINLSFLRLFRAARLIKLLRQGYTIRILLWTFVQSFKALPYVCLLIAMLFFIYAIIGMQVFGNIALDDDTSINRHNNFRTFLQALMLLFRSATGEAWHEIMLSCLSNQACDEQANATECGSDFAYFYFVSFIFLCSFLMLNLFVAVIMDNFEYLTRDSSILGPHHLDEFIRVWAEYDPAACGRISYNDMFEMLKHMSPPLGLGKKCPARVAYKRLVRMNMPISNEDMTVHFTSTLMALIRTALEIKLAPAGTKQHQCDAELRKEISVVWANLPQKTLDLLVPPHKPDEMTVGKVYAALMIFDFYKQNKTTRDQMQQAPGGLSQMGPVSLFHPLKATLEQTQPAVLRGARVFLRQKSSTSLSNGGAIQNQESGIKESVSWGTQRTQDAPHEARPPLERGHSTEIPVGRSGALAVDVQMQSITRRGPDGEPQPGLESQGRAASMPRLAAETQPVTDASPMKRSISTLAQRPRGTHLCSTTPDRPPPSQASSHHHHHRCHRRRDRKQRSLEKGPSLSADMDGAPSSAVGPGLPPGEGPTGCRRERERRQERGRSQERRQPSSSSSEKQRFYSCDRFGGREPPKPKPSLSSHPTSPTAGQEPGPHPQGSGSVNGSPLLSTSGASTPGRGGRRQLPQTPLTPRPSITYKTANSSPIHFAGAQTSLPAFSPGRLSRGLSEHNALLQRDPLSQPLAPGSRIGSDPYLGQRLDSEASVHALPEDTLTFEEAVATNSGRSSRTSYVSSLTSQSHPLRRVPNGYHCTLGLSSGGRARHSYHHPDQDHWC
For the compound `CC1(S(=O)(=O)c2cccc(C(F)(F)F)c2)CCOC(COc2cnc(C3CC3)cn2)C1` (single isomer, unassigned) [SC-133, 2-Cyclopropyl-5-[[4-methyl-4-[[3-(trifluoromethyl)phenyl]sulfonyl]-tetrahydro-pyran-2-yl]-methoxy]-pyrazine], the “Activity Category: %-Inhib (CaV2.2) @3 μM @30 mM KCl” value (from here on “Activity Category: %-Inhib”) is “A (%-Inhibition >95%)”.

Turning to `CC1(S(=O)(=O)c2cccc(C(F)(F)F)c2)CCOC(c2cncc(S(C)(=O)=O)c2)C1` (stereo not drawn) [SC-100, 3-Methylsulfonyl-5-[4-methyl-4-[[3-(trifluoromethyl)phenyl]sulfonyl]-tetrahydro-pyran-2-yl]-pyridine], the “Activity Category: %-Inhib” value was “C (%-Inhibition >40% up to ≤75%)”. Same read-out and setting: in the case of `CC1(S(=O)(=O)c2cccc(C(F)(F)F)c2)CCOC(c2cncc(S(C)(=O)=O)c2)C1` (stereo not drawn) [SC-101, 3-Methylsulfonyl-5-[4-methyl-4-[[3-(trifluoromethyl)phenyl]sulfonyl]-tetrahydro-pyran-2-yl]-pyridine] it was “B (%-Inhibition >75% up to ≤95%)”; in that of `CCC1(S(=O)(=O)c2cccc(C(F)(F)F)c2)CCOC(c2ccc(C(F)(F)F)cn2)C1` (stereo not drawn) [SC-107, 2-[4-Ethyl-4-[[3-(trifluoromethyl)phenyl]sulfonyl]-tetrahydro-pyran-2-yl]-5-(trifluoromethyl)-pyridine], “A (%-Inhibition >95%)”; in that of `CCC1(S(=O)(=O)c2cccc(C(F)(F)F)c2)CCOC(c2ccc(C(F)(F)F)cn2)C1` (stereo not drawn) [SC-108, 2-[4-Ethyl-4-[[3-(trifluoromethyl)phenyl]sulfonyl]-tetrahydro-pyran-2-yl]-5-(trifluoromethyl)-pyridine], “A (%-Inhibition >95%)”. `CCC1(S(=O)(=O)c2cccc(C(F)(F)F)c2)CCOC(c2ccc(C(F)(F)F)cn2)C1` (stereo not drawn) [SC-109, 2-[4-Ethyl-4-[[3-(trifluoromethyl)phenyl]sulfonyl]-tetrahydro-pyran-2-yl]-5-(trifluoromethyl)-pyridine]: the “Activity Category: %-Inhib” value is on record as “B (%-Inhibition >75% up to ≤95%)”. On the same count and under the same terms, in the case of `CC1(S(=O)(=O)c2cccc(C(F)(F)F)c2)CCOC(c2cnc(C3CC3)nc2)C1` (stereo not drawn) [SC-204, 2-Cyclopropyl-5-[4-methyl-4-[[3-(trifluoromethyl)phenyl]sulfonyl]-tetrahydro-pyran-2-yl]-pyrimidine] it was “B (%-Inhibition >75% up to ≤95%)”; in that of `CC1(S(=O)(=O)c2cccc(C(F)(F)F)c2)CCOC(COc2ccc(C(F)(F)F)nc2)C1` (stereo not drawn) [SC-209, 5-[[4-Methyl-4-[[3-(trifluoromethyl)phenyl]sulfonyl]-tetrahydro-pyran-2-yl]-methoxy]-2-(trifluoromethyl)-pyridine], “A (%-Inhibition >95%)”. As for `CC1(S(=O)(=O)c2cc(F)cc(C(F)(F)F)c2)CCOC(c2ncc(S(C)(=O)=O)cc2Cl)C1` (stereo not drawn) [SC-214, 3-Chloro-2-[4-[[3-fluoro-5-(trifluoromethyl)-phenyl]sulfonyl]-4-methyl-tetrahydro-pyran-2-yl]-5-methylsulfonyl-pyridine], the “Activity Category: %-Inhib” value is “C (%-Inhibition >40% up to ≤75%)”. On the same count and under the same terms, in the case of `CC1(S(=O)(=O)c2cc(F)cc(C(F)(F)F)c2)CCOC(c2ncc(S(C)(=O)=O)cc2Cl)C1` (stereo not drawn) [SC-215, 3-Chloro-2-[4-[[3-fluoro-5-(trifluoromethyl)-phenyl]sulfonyl]-4-methyl-tetrahydro-pyran-2-yl]-5-methylsulfonyl-pyridine] it was “B (%-Inhibition >75% up to ≤95%)”.

Still in this assay, the particulars now being: HEK293, 3 μM test compound; alternative assay buffer 30 mM KCl (inactivated channel state); HEK293 cells stably expressing human CaV2.2; read-out: Activity Category: %-Inhib (CaV2.2) @3 μM @30 mM KCl.
Consider `CC1(S(=O)(=O)c2cccc(C(F)(F)F)c2)CCOC(COc2cnc(C3CC3)cn2)C1` (single isomer, unassigned) [SC-132, 2-Cyclopropyl-5-[[4-methyl-4-[[3-(trifluoromethyl)phenyl]sulfonyl]-tetrahydro-pyran-2-yl]-methoxy]-pyrazine], for which the inhibition at 3 µM is 75 to 95%.

Turning to `CC1(S(=O)(=O)c2cccc(C(F)(F)F)c2)CCOC(c2ccc(C3CC3)cn2)C1` (stereo not drawn) [SC-103, 5-Cyclopropyl-2-[4-methyl-4-[[3-(trifluoromethyl)phenyl]sulfonyl]-tetrahydro-pyran-2-yl]-pyridine], the inhibition at 3 µM was greater than 95%.

With `CC1(S(=O)(=O)c2cccc(C(F)(F)F)c2)CCOC(c2ccc(S(C)(=O)=O)cn2)C1` (stereo not drawn) [SC-104, 5-Methylsulfonyl-2-[4-methyl-4-[[3-(trifluoromethyl)phenyl]sulfonyl]-tetrahydro-pyran-2-yl]-pyridine], the inhibition at 3 µM fell in the range of 75 to 95%. As for `CCC1(S(=O)(=O)c2cccc(C(F)(F)F)c2)CCOC(c2ccc(C(F)(F)F)cn2)C1` (stereo not drawn) [SC-106, 2-[4-Ethyl-4-[[3-(trifluoromethyl)phenyl]sulfonyl]-tetrahydro-pyran-2-yl]-5-(trifluoromethyl)-pyridine], the inhibition at 3 µM was greater than 95%. With `Cc1ccc(OCC2CC(C)(S(=O)(=O)c3cccc(C(F)(F)F)c3)CCO2)cn1` (stereo not drawn) [SC-114, 2-Methyl-5-[[4-methyl-4-[[3-(trifluoromethyl)phenyl]sulfonyl]-tetrahydro-pyran-2-yl]-methoxy]-pyridine], the inhibition at 3 µM fell in the range of 75 to 95%.

Take `CC1(S(=O)(=O)c2cccc(C(F)(F)F)c2)CCOC(c2nnc(C3CC3)o2)C1` (stereo not drawn) [SC-127, 2-Cyclopropyl-5-[4-methyl-4-[[3-(trifluoromethyl)phenyl]sulfonyl]-tetrahydro-pyran-2-yl]-[1,3,4]oxadiazole]: the inhibition at 3 µM lay within 40 to 75%. Take `CC1(S(=O)(=O)c2cccc(C(F)(F)F)c2)CCOC(c2nc(C3CC3)co2)C1` (stereo not drawn) [SC-158, 4-Cyclopropyl-2-[4-methyl-4-[[3-(trifluoromethyl)phenyl]sulfonyl]-tetrahydro-pyran-2-yl]-oxazole]: the inhibition at 3 µM was greater than 95%.

Turning to `CCC1(S(=O)(=O)c2cccc(C(F)(F)F)c2)CCOC(c2nc(C(F)(F)F)no2)C1` (stereo not drawn) [SC-200, 5-[4-Ethyl-4-[[3-(trifluoromethyl)phenyl]sulfonyl]-tetrahydro-pyran-2-yl]-3-(trifluoromethyl)-[1,2,4]oxadiazole], the inhibition at 3 µM was 75 to 95%. Still for that read-out and setting: then `CCC1(S(=O)(=O)c2cccc(C(F)(F)F)c2)CCOC(c2nc(C3CC3)no2)C1` (stereo not drawn) [SC-202, 3-Cyclopropyl-5-[4-ethyl-4-[[3-(trifluoromethyl)phenyl]sulfonyl]-tetrahydro-pyran-2-yl]-[1,2,4]oxadiazole], with 75 to 95%.

As for `CC1(S(=O)(=O)c2cccc(C(F)(F)F)c2)CCOC(c2cnc(C3CC3)nc2)C1` (stereo not drawn) [SC-205, 2-Cyclopropyl-5-[4-methyl-4-[[3-(trifluoromethyl)phenyl]sulfonyl]-tetrahydro-pyran-2-yl]-pyrimidine], the inhibition at 3 µM was greater than 95%. On to `CCC1(S(=O)(=O)c2cccc(C(F)(F)F)c2)CCOC(c2nnc(C3CC3)o2)C1` (stereo not drawn) [SC-206, 2-Cyclopropyl-5-[4-ethyl-4-[[3-(trifluoromethyl)phenyl]sulfonyl]-tetrahydro-pyran-2-yl]-[1,3,4]oxadiazole], for which the inhibition at 3 µM lay within 40 to 75%. The same measure, in the same setting: in the case of `CC1(S(=O)(=O)c2cccc(C(F)(F)F)c2)CCOC(COc2ccc(C(F)(F)F)nc2)C1` (stereo not drawn) [SC-208, 5-[[4-Methyl-4-[[3-(trifluoromethyl)phenyl]sulfonyl]-tetrahydro-pyran-2-yl]-methoxy]-2-(trifluoromethyl)-pyridine] it was 75 to 95%.

For `CC1(S(=O)(=O)c2cccc(S(C)(=O)=O)c2)CCOC(c2ncc(C(F)(F)F)cc2S(C)(=O)=O)C1` (stereo not drawn) [SC-210, 2-[4-Methyl-4-[(3-methylsulfonyl-phenyl)sulfonyl]-tetrahydro-pyran-2-yl]-3-methylsulfonyl-5-(trifluoromethyl)-pyridine], the inhibition at 3 µM is greater than 95%. With `CC1(S(=O)(=O)c2cccc(C(F)F)c2)CCOC(c2ncc(C(F)(F)F)cc2S(C)(=O)=O)C1` (stereo not drawn) [SC-212, 2-[4-[[3-(Difluoro-methyl)-phenyl]sulfonyl]-4-methyl-tetrahydro-pyran-2-yl]-3-methylsulfonyl-5-(trifluoromethyl)-pyridine], the inhibition at 3 µM was 75 to 95%.

For the origin of these results see patent publication US9926302B2, “Heteroaryl substituted heterocyclyl sulfones” (priority 2014, dated 2018).
